Source: US20020170080A1, “Alpha-tocopherol transfer protein knockout animals” (The Regents of the University of California, priority 2000, published 2002)

Tests used:
femoral artery lesions = conditions: human clinical trial; cited from earlier work
[1] = test system: abdominal aortas or iliac arteries; conditions: nonhuman primates; cited from earlier work
Ttpa^−/− females = assay: Vitamin E supplementation of the diet and the fertility defect of Ttpa−/− female mice; format: in vivo, mouse; conditions: vitamin E supplementation 1000 IU/kg of diet, data not shown
Excerpt: Ttpa^−/− mice were generally healthy. Offspring from heterozygous intercrosses were born with the expected Mendelian distribution. Ttpa^−/− mice at 18 months of age had no obvious signs of neurological disease. In contrast, humans with α-TTP gene defects develop ataxia with vitamin E deficiency by the first decade of life (Sokol et al. (1988) J. Lab. Clin. Med. 111: 548-559; Ouahchi et al. (1995) Nat. Genet. 9: 141-145; Hentati et al. (1996) Ann. Neurol. 39: 295-300). […] Ttpa^−/− males had no obvious impairment in fertility.

apo E^−/− mice = conditions: apo E−/− mice fed a chow diet, vitamin E supplementation; cited from earlier work

| Molecule | progression of femoral artery lesions (femoral artery lesions) | lesion development in abdominal aortas or iliac arteries [1] | effect on fertility defect (Ttpa^−/− females) | levels of atherosclerosis (apo E^−/− mice) |
| --- | --- | --- | --- | --- |
| CC(C)(Sc1cc(C(C)(C)C)c(O)c(C(C)(C)C)c1)Sc1cc(C(C)(C)C)c(O)c(C(C)(C)C)c1 [probucol] | did not prevent progression of femoral artery lesions | did not prevent | – | – |
| vitamin E | – | – | completely reversed the fertility defect | decreased levels of atherosclerosis |
